Laboratory results reported in ChEMBL document CHEMBL3507680, “University of Dundee, Gates Library screen for HepG2 cell viability”.

Assay: Human HepG2 cell viability assay in 384 well format
Assay type: toxicity, cell-based
Set-up: dose 125 nL, time 70.5 hour; concentration not given beside the values
Conditions: HepG2 cells, read-out: Inhibition

| Compound | cytotoxicity at 70.5 h [%] |
| --- | --- |
| Cc1cccc2nc(C(=O)N3CCCC[C@]4(C)NC(=O)CC[C@H]34)cn12 | -0.96 |
| O[C@H]1CN(Cc2ccc3c(c2)OCCO3)CC[C@@]12CCCO2 | -2.15 |
| CO[C@H]1CN(Cc2ccc(F)cc2)CC[C@@]12CCCO2 | 6.89 |
| O=C(CCCn1cccn1)N1C[C@@H](O)[C@H](Oc2cccc(F)c2)C1 | 3.04 |
| CC(C)n1ccnc1CN1CCCC1c1cccc(-n2ccnc2)n1 (configuration not stated) | -2.76 |
| Nc1nccnc1C1CN(C(=O)c2cnc(C3CC3)nc2)CCO1 (configuration not stated) | -4.03 |
| CN1CCN(C(=O)C2CCCN(c3cccnn3)C2)CC1 (configuration not stated) | 26.4 |
| COc1ccc(OC)c(C(O)CN2CCC(N3CCC(C)CC3)CC2)c1 (configuration not stated) | 2.26 |
| CC(=O)N1CCC(C(=O)N2CCCC(Cc3cccc(C)n3)C2)CC1 (configuration not stated) | -4.08 |
| Cn1nccc1CCC(=O)N1CCC(c2cnccn2)CC1 | -13.1 |
| Cc1nc2ccc(C(=O)N3C[C@@H](O)[C@H](N4CCOCC4)C3)cc2[nH]1 | 12 |
| CCN(Cc1ccncc1)CC1(O)CCN(C(=O)c2ccccc2C)C1 (configuration not stated) | -2.28 |
| CNc1cncc(C2CCCN2S(=O)(=O)c2ccccc2)n1 (configuration not stated) | 0.983 |
| CS(=O)(=O)c1cn[nH]c1C1CCCCN1C(=O)c1cncs1 (configuration not stated) | -6.78 |
| Cn1nccc1CCC(=O)N1CCCC(c2cnccn2)C1 (configuration not stated) | 12.9 |
| CNC(=O)c1ccc(C2CCCN(C(=O)c3c(C)noc3C)C2)nc1 (configuration not stated) | -7.86 |
| CC(=O)N1CCC(Cc2cncc(-c3c(C)n[nH]c3C)n2)C1 (configuration not stated) | -9.36 |
| CC1CCN(CCNCc2cc(-c3ccccc3)cn3nnnc23)CC1 | -3.94 |
| COCCN1CCN(Cc2cnc(C)nc2)CC1 | -6.04 |

| Compound | cytotoxicity at 70.5 h [%] |
| --- | --- |
| Cn1ccnc1C(=O)N1CCOC(Cc2ccccc2Cl)C1 (configuration not stated) | 11.6 |
| O=C(CCn1ccnc1)N1C[C@@H](O)[C@H](Oc2cccc(F)c2)C1 | 0.895 |
| Cc1cc(C)nc(C2CCN(C(=O)c3c(C)noc3C)C2)n1 (configuration not stated) | -3.76 |
| Cc1cc(C)nc(C2CCN(C(=O)c3cncnc3C)C2)n1 (configuration not stated) | 12.9 |
| O=S(=O)(c1ccc(F)c(F)c1)N1CCCC(c2nccs2)C1 (configuration not stated) | 1.6 |
| CCc1nnc(Nc2cccc(C3CCN(c4cnccn4)CC3)n2)s1 | 14.7 |
| CCc1nnc(Nc2cccc(C3CCN(C(=O)CNC)CC3)n2)s1 | 10.1 |
| CCc1nnc(Nc2cccc(C3CCN(C(=O)CN(C)C)CC3)n2)s1 | 9.15 |
| c1ccc(CN2CCC(c3nccnc3-n3ccnc3)CC2)cc1 | -14.9 |
| CCc1nnc(Nc2cccc(C3CCCN(CC(C)(C)C)C3)n2)s1 (configuration not stated) | -10.7 |
| CCC(=O)N1CCC(Cc2ccccc2-c2ccncc2)(C(N)=O)C1 (configuration not stated) | -10.9 |
| CC(C)c1ncc(CN2CCOC(C(=O)Nc3ccccc3)C2)cn1 (configuration not stated) | -9.69 |
| Cc1ccc(C(=O)N2CCCCC2CN(C)C)cc1 (configuration not stated) | 4.31 |
| COCCCNC(=O)CN(C)C(C)c1nc(C)no1 (configuration not stated) | -3.18 |
| CC(C#N)CN(C)C(=O)CCNC(=O)C(C)(C)C (configuration not stated) | 0.0301 |
| Cc1nc(CN2CCOC3(CCCC3)C2)oc1C | -4.4 |
| CCN1CCOC(CNCc2cnc(C(C)(C)C)s2)C1 (configuration not stated) | -5.25 |
| CNC(=O)CN1CCC(CN(C)Cc2ccccc2N(C)C)CC1 | 1.48 |
| CC(O)CN(C)C(=O)CCNC(=O)OC(C)(C)C (configuration not stated) | -3.37 |

| Compound | cytotoxicity at 70.5 h [%] |
| --- | --- |
| COc1c(Cl)cc(Cl)cc1CN1CCC(C(N)=O)C1 (configuration not stated) | 8.49 |
| COc1ccccc1/C=C/CNCC1CCc2nncn2C1 (configuration not stated) | 8.27 |
| Cc1cc(C)cc(NCCC(=O)NC2CCN(C(=O)C3CC3)CC2)c1 | -2.45 |
| CCOC1CCN(C(=O)c2ccc(-c3cccc(C)c3)[nH]c2=O)CC1 | -8.75 |
| Cc1cccc(-c2ccc(C(=O)N3CCN(C(C)C)CC3)c(=O)[nH]2)c1 | -2.78 |
| O=C(c1ccc(-c2ccccc2)[nH]c1=O)N1CCN(C2CC2)CC1 | -8.84 |
| COc1ccccc1CC(C)CC(=O)NC(C)C (configuration not stated) | 0.743 |
| CCOc1c(F)cccc1C(=O)N(C)CCc1ccccn1 | 36.5 |
| CS(=O)(=O)CCn1ccc(NC(=O)Cc2ccccc2Cl)n1 | -1.99 |
| O=C(C(c1ccccc1)S(=O)(=O)c1ccccn1)N1CCCCC1 (configuration not stated) | -7.07 |
| NC(=O)C1CCN(C(=O)NC2CCN(CC3CCCC3)C2)CC1 (configuration not stated) | 9.67 |
| CN(C)Cc1ccnc(NS(=O)(=O)Cc2cccc(F)c2)c1 | 1.98 |
| CCN(C)S(=O)(=O)NCC(O)c1c(Cl)cccc1Cl (configuration not stated) | 18.4 |
| NC(=O)c1cn(CC2CCC2)c(C2CC2)n1 | 3.19 |
| CC(C)OCCCN(Cc1ccncc1)Cc1cccc(F)c1F | 22.3 |
| CC(C)OCCCN(Cc1ccncc1)Cc1cccc(F)c1 | 1.37 |
| Cc1ccc(Nc2nccc(C3CCN(C(=O)CN)C3)n2)nc1 (configuration not stated) | -5.12 |
| COc1cc(CN2CCn3c(CO)nnc3C2)ccc1OC(C)C | 34.7 |
| Cc1ccc(CN(CCCn2ccnc2)Cc2cccs2)s1 | 18.6 |
